In patent publication US8501804B2, “Bicyclic compound” (Takeda Pharmaceutical Company Limited, priority 2008, dated 2013):

Columns and labels:
human ACC1 = target: T1, human ACC1 (Homo sapiens, UniProt Q13085); test: ACC1 inhibitory activity (malachite green); format: biochemical; settings: test compound 10 μM; for inhibition at 10 µM: read-out: ACC1 10 μM inhibitory rate (%)
T1 construct: His6 (from vector pFAST-BacHTc); made in house; host or cells: SF-9 insect cells, recombinant baculovirus BAC-ACC1
Protocol: The ACC1 inhibitory action of the compound of the present invention was evaluated by the following method.
(1) Cloning of Human ACC1 Gene and Preparation of Recombinant Baculovirus
(§1) Human ACC1 gene was cloned by PCR using a human liver cDNA library (Clontech) as a template and Primer 1 and Primer 2 shown below. Primer 1 and Primer 2 were prepared by adding SalI, NotI restriction enzyme recognition sequences based on the information of the base sequence of human ACC1 gene (Genbank Accession U19822).
(§2) PCR was performed using Pyrobest DNA polymerase (TAKARA BIO INC.). The obtained PCR product was cloned to pT7 Blue vector (Novagen) and, after confirmation of the base sequence, digested with restriction enzymes SalI and NotI. The obtained DNA fragment was inserted into pFAST-BacHTc (Invitrogen) digested with restriction enzymes SalI and NotI to give expression plasmid ACC1/pFAST-BacHTc.
Using the expression plasmid ACC1/pFAST-BacHTc and BAC-TO-BAC Baculovirus Expression System (Invitrogen), virus stock BAC-ACC1 of recombinant Baculovirus was prepared.
(2) Preparation of ACC1 Protein
(§3) SF-9 cells (Invitrogen) were inoculated to a medium (1 L) for insect cells (Sf-900IISFM medium (Invitrogen) containing 10% fetal bovine serum (Trace), 50 mg/L Gentamicin (Invitrogen), 0.1% Pluronic F-68 (Invitrogen)) at 1×10^6 cells/mL, and cultured with shaking in 2 L meyer at 27° C., 100 rpm.
After 24 hr of the culture, 10 mL of recombinant Baculovirus BAC-ACC1 was added, and the cells were cultured for 3 days. The culture medium was centrifuged at 1000×g for 5 min to give virus-infected cells. The cells were washed with phosphate buffered saline (Invitrogen) and centrifuged under the same conditions. The obtained cells were cryopreserved at −80° C.
The cryopreserved cells were thawed in ice and suspended in 100 mL of 25 mM HEPES buffer (pH 7.5) containing 10% Glycerol, 0.13 M NaCl, 1 mM EDTA, 25 mM Sodium […] and 1 mM Sodium Orthovanadate, and supplemented with Complete Protease Inhibitor (Nippon Boehringer Ingelheim Co., Ltd.). The obtained suspension was homogenized three times in a polytron homogenizer (Kinematica) at 20,000 rpm for 30 sec. The obtained cell disruption solution was clarified by centrifugation at 185700×g for 50 min, and filtered through a 0.45 μm filter. The filtrate was passed through a column packed with 12 ml of Ni-NTA Super Flow Gel (QUIAGEN) at a flow rate of about 5 mL/min. The column was washed with buffer A (50 mM HEPES (pH 7.5) containing 0.3 M NaCl), further washed with buffer A containing 20 mM Imidazole, and eluted with buffer A containing 100 mM Imidazole. The eluate was concentrated with Vivaspin 20 (Vivascience) with a molecular weight cut off of 30K. The obtained concentrate was dialyzed against Sephadex G-25 (Amersham Biosciences, 358 mL) equilibrated with 50 mM HEPES (pH 7.5) containing 10 mM MgCl2, 2 mM Dithiothreitol, 10 mM Tripotassium Citrate and 0.3 M NaCl. The inner dialysate was concentrated with Vivaspin 20 (Vivascience) with molecular weight cut off of 30K, and concentrate was filtered through a 0.22 μm filter to give ACC1. The obtained ACC1 was cryopreserved at −80° C.
(3) Measurement of ACC1 Inhibitory Activity
ACC1 (0.93 mg/ml) obtained in the above-mentioned (2) was diluted with an enzyme reaction buffer (50 mM HEPES (pH 7.5), 10 mM MgCl2, 10 mM Tripotassium Citrate, 2 mM Dithiothreitol, 0.75 mg/ml Fatty acid free BSA) to a concentration of 8 μg/ml, and the mixture was added to each well of a 384 well assay plate (Nunc 265196) by 10 μl. A test compound was dissolved in dimethyl sulfoxide (DMSO) and the mixture was diluted with an enzyme reaction buffer and the resulting solution (5 μl) was added to each well. The mixture was incubated at 30° C. for 60 min. Then, a substrate solution (50 mM KHCO3, 200 μM ATP, 200 μM Acetyl-CoA, 5 μl) was added to each well, and the mixture was reacted at 30° C. for 20 min (test compound addition group). […]

human ACC2 (Nd) = target: T2, human ACC2 (Nd) (Homo sapiens, UniProt O00763); test: ACC2 inhibitory activity (malachite green); format: biochemical; settings: test compound 10 μM; for inhibition at 10 µM: read-out: ACC2 10 μM inhibitory rate (%)
T2 construct: His6 (from vector pFAST-BacHTa); made in house; host or cells: SF-9 insect cells, recombinant baculovirus BAC-ACC2 (Nd)
T2 sequence (O00763 117-2458 limits assumed): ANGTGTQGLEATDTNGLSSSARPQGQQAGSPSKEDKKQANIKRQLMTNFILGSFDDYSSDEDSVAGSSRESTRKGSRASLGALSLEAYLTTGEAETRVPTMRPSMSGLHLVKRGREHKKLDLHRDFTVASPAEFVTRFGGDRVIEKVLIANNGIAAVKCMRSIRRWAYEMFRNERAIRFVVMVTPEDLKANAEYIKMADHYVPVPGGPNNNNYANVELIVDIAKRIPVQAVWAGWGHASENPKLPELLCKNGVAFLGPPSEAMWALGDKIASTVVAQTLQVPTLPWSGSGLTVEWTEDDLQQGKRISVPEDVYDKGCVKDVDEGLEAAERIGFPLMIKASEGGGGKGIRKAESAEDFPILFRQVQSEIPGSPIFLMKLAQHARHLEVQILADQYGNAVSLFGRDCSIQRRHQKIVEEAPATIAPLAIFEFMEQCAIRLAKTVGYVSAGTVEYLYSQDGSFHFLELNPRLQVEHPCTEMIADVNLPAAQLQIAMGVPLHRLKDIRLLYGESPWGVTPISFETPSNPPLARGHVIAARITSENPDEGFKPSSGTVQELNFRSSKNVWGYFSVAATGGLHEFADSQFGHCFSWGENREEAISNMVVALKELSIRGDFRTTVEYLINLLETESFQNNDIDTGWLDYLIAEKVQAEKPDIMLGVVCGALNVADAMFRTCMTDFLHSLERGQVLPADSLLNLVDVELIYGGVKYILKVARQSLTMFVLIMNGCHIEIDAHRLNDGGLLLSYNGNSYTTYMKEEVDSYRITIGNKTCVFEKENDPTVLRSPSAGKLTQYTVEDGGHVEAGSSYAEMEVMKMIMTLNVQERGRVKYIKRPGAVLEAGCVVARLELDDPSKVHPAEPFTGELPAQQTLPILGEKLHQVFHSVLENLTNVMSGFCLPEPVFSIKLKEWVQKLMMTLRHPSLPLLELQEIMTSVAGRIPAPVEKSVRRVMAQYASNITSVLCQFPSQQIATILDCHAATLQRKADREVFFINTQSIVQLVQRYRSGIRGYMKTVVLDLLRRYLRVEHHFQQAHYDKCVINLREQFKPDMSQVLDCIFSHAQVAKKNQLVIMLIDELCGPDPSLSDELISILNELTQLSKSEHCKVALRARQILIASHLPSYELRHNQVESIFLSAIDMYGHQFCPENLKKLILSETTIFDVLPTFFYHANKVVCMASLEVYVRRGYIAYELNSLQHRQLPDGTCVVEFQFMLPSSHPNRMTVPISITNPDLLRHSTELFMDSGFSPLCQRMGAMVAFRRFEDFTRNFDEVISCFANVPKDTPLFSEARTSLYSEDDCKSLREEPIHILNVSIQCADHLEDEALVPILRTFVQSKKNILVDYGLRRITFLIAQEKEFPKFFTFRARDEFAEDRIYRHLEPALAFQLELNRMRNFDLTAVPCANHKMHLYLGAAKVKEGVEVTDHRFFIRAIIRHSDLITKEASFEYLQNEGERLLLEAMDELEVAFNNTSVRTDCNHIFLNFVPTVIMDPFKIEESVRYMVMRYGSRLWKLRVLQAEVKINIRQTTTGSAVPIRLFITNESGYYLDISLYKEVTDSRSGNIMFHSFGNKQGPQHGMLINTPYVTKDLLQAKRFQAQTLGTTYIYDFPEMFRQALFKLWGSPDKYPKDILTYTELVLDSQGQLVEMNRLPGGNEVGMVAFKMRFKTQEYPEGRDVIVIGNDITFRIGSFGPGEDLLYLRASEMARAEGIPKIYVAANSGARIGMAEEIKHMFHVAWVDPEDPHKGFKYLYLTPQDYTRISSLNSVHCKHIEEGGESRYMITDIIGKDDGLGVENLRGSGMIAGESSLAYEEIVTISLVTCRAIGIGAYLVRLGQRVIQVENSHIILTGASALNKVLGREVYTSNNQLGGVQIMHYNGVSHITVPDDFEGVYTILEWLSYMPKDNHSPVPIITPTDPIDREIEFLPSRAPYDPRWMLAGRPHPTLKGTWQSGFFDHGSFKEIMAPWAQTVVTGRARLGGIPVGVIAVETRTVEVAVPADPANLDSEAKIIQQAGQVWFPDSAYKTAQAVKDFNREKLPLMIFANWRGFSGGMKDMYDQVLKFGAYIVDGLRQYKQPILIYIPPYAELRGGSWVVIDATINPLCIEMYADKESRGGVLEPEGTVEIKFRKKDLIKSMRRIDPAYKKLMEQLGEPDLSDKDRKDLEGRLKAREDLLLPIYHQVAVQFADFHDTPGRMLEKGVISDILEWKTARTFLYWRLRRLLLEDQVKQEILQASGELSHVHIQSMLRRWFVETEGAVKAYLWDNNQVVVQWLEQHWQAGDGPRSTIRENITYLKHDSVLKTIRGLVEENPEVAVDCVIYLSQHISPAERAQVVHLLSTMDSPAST
Protocol: The ACC2 inhibitory action of the compound of the present invention was evaluated by the following method.
(1) Cloning of Human ACC2 Gene and Preparation of Recombinant Baculovirus
as §1, with “ACC2” for “ACC1”, “skeletal muscle” for “liver”, “XbaI” for “NotI”, “U89344).” for “U19822).”
as §2, with “XbaI.” for “NotI.”, “pFAST-BacHTa” for “pFAST-BacHTc”, “XbaI” for “NotI”, “ACC2/pFAST-BacHTa.” for “ACC1/pFAST-BacHTc.”
A plasmid for expression of ACC2 without a mitochondrial targeting sequence was prepared by PCR using the expression plasmid as a template, and Primer 3 (SalI restriction enzyme recognition sequence was added) and Primer 4 prepared by reference to the information of human ACC2 gene base sequence (Genbank Accession U89344).
as §2, with “Pyrobest-DNA” for “Pyrobest DNA”, “AflII.” for “NotI.”, “ACC2/pFAST-BacHTa” for “pFAST-BacHTc (Invitrogen)”, “AflII” for “NotI”, “ACC2mito7/pFAST-BacHTa.” for “ACC1/pFAST-BacHTc.”
Using the expression plasmid ACC2mito7/pFAST-BacHTa and BAC-TO-BAC Baculovirus Expression System (Invitrogen), virus stock BAC-ACC2 of recombinant Baculovirus (N terminal deleted (hereinafter Nd)) was prepared.
(2) Preparation of ACC2 (Nd) Protein
as §3, with “(2” for “(1”, “0.5×10^6” for “1×10^6”, “Wave Bioreactor (Wave)” for “2 L meyer”, “20 rpm, rocking angle 6°, oxygen concentration 30%.” for “100 rpm.”
On day 4 of the culture, 3 L of the medium for insect cells was added, the rocking angle was set to 8°, and the cells were cultured. On day 5 of the culture, 100 ml of recombinant Baculovirus BAC-ACC2 (Nd) was added, 5 L of the medium for insect cells was further added, the rocking angle was set to 11°, and the cells were cultured for 3 days. The culture medium was centrifuged at 1000×g for 10 min to give virus-infected cells. The cells were washed with phosphate buffered saline (Invitrogen) and centrifuged under the same conditions. The obtained cells were cryopreserved at −80° C.
The cryopreserved cells were thawed in ice and suspended in 900 ml of 25 mM HEPES buffer (pH 7.5) containing 10% Glycerol, 0.13 M NaCl, 1 mM EDTA, 25 mM Sodium β-Glycerophosphate and 1 mM Sodium Orthovanadate, and supplemented with Complete Protease Inhibitor (Nippon Boehringer Ingelheim Co., Ltd.). The obtained suspension was homogenized three times in a polytron homogenizer (Kinematica) at 20,000 rpm for 30 sec. The obtained cell disruption solution was clarified by centrifugation at 31000×g for 60 min, and filtered through a 0.45 μm filter. The filtrate was passed through a column packed with 60 mL of Ni-NTA Super Flow Gel (QUIAGEN) at a flow rate of about 5 mL/min. The column was washed with buffer A (50 mM HEPES (pH 7.5) containing 0.3 M NaCl), further washed with buffer A containing 20 mM Imidazole, and eluted with buffer A containing 100 mM Imidazole. The eluate was concentrated with Vivaspin 20 (Vivascience) with a molecular weight cut off of 30K. The obtained concentrate was dialyzed against 50 mM HEPES (pH 7.5) containing 10 mM MgCl2, 2 mM Dithiothreitol, 10 mM Tripotassium Citrate and 0.3 M NaCl. The inner dialysate was filtered through a 0.22 μm filter to give ACC2 (Nd). […]

Row | Structure (SMILES) | inhibition at 10 µM (human ACC1) [%] | inhibition at 10 µM (human ACC2 (Nd)) [%] | ACC1 10 μM inhibitory rate (%) (human ACC1) | ACC2 10 μM inhibitory rate (%) (human ACC2 (Nd))
1 | CC(=O)NC(C)c1cc2cc(OCc3ccc(OCC4CC4)cc3Cl)ccc2o1 (centres unmarked) [Example 134 (retention time longer), N-[1-(5-{[2-chloro-4-(cyclopropylmethoxy)benzyl]oxy}-1-benzofuran-2-yl)ethyl]acetamide] | 33 | 55 | – | –
2 | CC(=O)NC(C)C1Cc2cc(OCc3ccc(OCC4CC4)cc3F)ccc2O1 (centres unmarked) [Example 140, N-[1-(5-{[4-(cyclopropylmethoxy)-2-fluorobenzyl]oxy}-2,3-dihydro-1-benzofuran-2-yl)ethyl]acetamide] | – | – | 20 | 66
3 | CC(=O)NC(C)c1cc2cc(OCc3ccc(OCC4CC4)cc3F)ccc2o1 (centres unmarked) [Example 116 (retention time longer), N-[1-(5-{[4-(cyclopropylmethoxy)-2-fluorobenzyl]oxy}-1-benzofuran-2-yl)ethyl]acetamide] | – | – | 24 | 63
4 | CC(=O)NC(C)c1cc2cc(OCc3ccc(OCC4CC4)cc3F)ccc2o1 (centres unmarked) [Example 110, N-[1-(5-{[4-(cyclopropylmethoxy)-2-fluorobenzyl]oxy}-1-benzofuran-2-yl)ethyl]acetamide] | 40 | 78 | – | –
5 | COCOc1ccc(CCc2ccc3cc(C(C)NC(C)=O)oc3c2)cc1 (centres unmarked) [Example 95, N-[1-(6-{2-[4-(methoxymethoxy)phenyl]ethyl}-1-benzofuran-2-yl)ethyl]acetamide] | 43 | 80 | – | –
6 | CCCOc1ccc(CCc2ccc3cc(C(C)NC(C)=O)oc3c2)cc1 (centres unmarked) [Example 47, optically active forms (two kinds) of N-(1-{6-[2-(4-propoxyphenyl)ethyl]-1-benzofuran-2-yl}ethyl)acetamide] | – | – | 37 | 91
7 | CC(=O)N[C@@H](C)[C@@H]1Cc2ccc(CCc3ccc(OCC4CC4)cc3)cc2O1.CC(=O)N[C@H](C)[C@H]1Cc2ccc(CCc3ccc(OCC4CC4)cc3)cc2O1 (mixture of isomers) [Example 130 (retention time longer), N-{(1R)-1-[(2R)-6-{2-[4-(cyclopropylmethoxy)phenyl]ethyl}-2,3-dihydro-1-benzofuran-2-yl]ethyl}acetamide and N-{(1S)-1-[(2S)-6-{2-[4-(cyclopropylmethoxy)phenyl]ethyl}-2,3-dihydro-1-benzofuran-2-yl]ethyl}acetamide] | – | – | 25 | 62
8 | CC(=O)N[C@@H](C)[C@@H]1Cc2ccc(C#Cc3ccc(OCC4CC4)nc3)cc2O1 [Example 139, N-{(1S)-1-[(2S)-6-{[6-(cyclopropylmethoxy)pyridin-3-yl]ethynyl}-2,3-dihydro-1-benzofuran-2-yl]ethyl}acetamide] | 37 | 100 | – | –

Second part, the molecule after the results:

Row | inhibition at 10 µM (human ACC1) [%] | inhibition at 10 µM (human ACC2 (Nd)) [%] | ACC1 10 μM inhibitory rate (%) (human ACC1) | ACC2 10 μM inhibitory rate (%) (human ACC2 (Nd)) | Structure (SMILES)
9 | 39 | 78 | – | – | CC(=O)NC(C)c1cc2ccc(CCc3ccc4c(c3)C(C)(C)CO4)cc2o1 (centres unmarked) [Example 152, N-(1-{6-[2-(3,3-dimethyl-2,3-dihydro-1-benzofuran-5-yl)ethyl]-1-benzofuran-2-yl}ethyl)acetamide]
10 | – | – | 37 | 77 | CCCCOc1ccc(CCc2ccc3cc(C(C)NC(C)=O)oc3c2)cc1 (centres unmarked) [Example 189 (retention time shorter)]
11 | 34 | 80 | – | – | CC(=O)NC(C)c1cc2ccc(CCc3ccc(OCCC4CC4)cc3)cc2o1 (centres unmarked) [Example 174, N-[1-(6-{2-[4-(2-cyclopropylethoxy)phenyl]ethyl}-1-benzofuran-2-yl)ethyl]acetamide]
12 | 29 | 79 | – | – | CCOc1ccc(CCc2ccc3cc(C(C)NC(C)=O)oc3c2)cc1 (centres unmarked) [Example 190 (retention time longer), N-(1-{6-[2-(4-ethoxyphenyl)ethyl]-1-benzofuran-2-yl}ethyl)acetamide]
13 | 15 | 74 | – | – | CCOc1ccc(COc2ccc3cc(C(C)NC(C)=O)oc3c2)cc1Br (centres unmarked) [Example 175, N-(1-{6-[(3-bromo-4-ethoxybenzyl)oxy]-1-benzofuran-2-yl}ethyl)acetamide]
